Residues, ends and D or L forms follow the SMILES beside them. *: point of attachment. Cbz = O=C(OCc1ccccc1)*; Boc = CC(C)(C)OC(=O)*
First: CCCCCCCNC(=O)N(C)c1cccc(-c2ccc(C=C(C)C(=O)O)cc2OCCCC)c1
Second: CCCCC#CCCOc1ccc(/C=C/C(=O)Nc2ccccc2C(=O)O)cc1OC
The melting point of the first is lower: 70 to 72 °C for the first, 169 to 170 °C for the second.

First: CC(=O)C=Cc1c(-c2ccccc2)nn2ccccc12
Second: Cn1c(S)nc(-c2ccccc2)c1-c1ccccc1
The melting point of the first is lower: 134 to 136 °C for the first, 179 to 182 °C for the second.

Compared with `CCOC(=O)c1csc(Cc2ccccc2)n1`, `COC(=O)c1cc(O)nn1-c1ccccc1` is higher in melting point: 78 to 79 °C for the first, 227 to 228 °C for the second.

First: Cc1cccc(NC(=O)C2=C(O)c3ccccc3N(c3ccccc3)C2)n1
Second: Cc1ccc(NC(=N)c2ccccc2)cc1NC(=O)/C=C/c1ccccc1C(F)(F)F
The melting point of the first is lower: 74 to 77 °C for the first, 220 to 222 °C for the second.

First: CSc1ncc(OCc2cccnc2)c(=O)[nH]1
Second: Clc1nc(-c2ccccn2)[nH]c1I
The melting point of the first is lower: 186 to 187 °C for the first, 188 to 189 °C for the second.

First: CN(c1nc(Nc2ccc(O)cc2)nc(NC2CCCCCC2)n1)C1CCNCC1
Second: O=C(CC1CCCC1)Nc1ccc2c(c1)C(=O)CCC2
The melting point of the first is higher: 130 °C for the first, 117 to 118 °C for the second.

First: Cc1c2c(c(Cc3ccc(C(C)C)cc3)c(C)c1NCc1ccccc1)OCC2
Second: Cc1nc2c(N)nc3ccccc3c2n1Cc1ccccc1
The melting point of the first is lower: 115 to 116 °C for the first, 279 to 282 °C for the second.

First: CCCCNC(=O)Nc1ccc(C)cc1
Second: CN1CCCC1=NC(=O)Nc1ccc(Cl)cc1
The melting point of the first is lower: 118 to 119 °C for the first, 138 to 141 °C for the second.

First: CCOCc1nc2c(N)nc3ccccc3c2n1CCC1(O)CC1
Second: Nc1nc2ccccc2c2c1nc(-c1ccccc1)n2CCCCNC(=O)c1ccc2ccccc2n1
The melting point of the first is higher: 210 to 211 °C for the first, 81.1 to 83.9 °C for the second.

First: CCc1nccc(N(C(=O)Cc2ccc(Oc3ccc(C(F)(F)F)cn3)cc2)C(=O)OC)c1Cl
Second: Cc1nc(C)c(Cl)c(NCc2ccc(Oc3ccc4ncc([N+](=O)[O-])n4n3)cc2)n1
The melting point of the first is lower: 62 to 64 °C for the first, 203 °C for the second.

First: COc1ccc(-c2ccncc2)cc1
Second: CC(C)(C)OC(=O)N1CCCC(c2nc(-c3ccncc3)c(-c3ccc(F)cc3)[nH]2)C1 (stereo not given)
The melting point of the first is lower: 94 to 96 °C for the first, 193 to 194 °C for the second.

First: CNC(=O)c1cccc(NC(=O)COc2ccccc2C)c1
Second: O=C(Nc1ccc2c(c1)S(=O)(=O)NC1CCCN21)c1ccccc1 (stereo not given)
The melting point of the first is lower: 148 °C for the first, 293 °C for the second.

First: CCc1ccccc1-c1nc(-c2ccccc2)n[nH]1
Second: ClCc1cccc2cc(-c3ccccc3)oc12
The melting point of the first is higher: 124 to 126 °C for the first, 72 to 73 °C for the second.

First: CC(C)N1C(=O)CC(C(=O)O)C1c1ccccc1 (stereo not given)
Second: COC(=O)c1ccccc1C(=O)NC(C)(C)C#N
The melting point of the first is higher: 126 to 134 °C for the first, 100 to 101 °C for the second.

First: O=CNc1nc2c(s1)-c1nc(-c3ccccc3)ncc1CC2
Second: CC(=O)Nc1onc(-c2ccccc2)c1Cl
The melting point of the first is higher: 304 to 306 °C for the first, 141 to 142 °C for the second.

First: O=C1CC2Cc3cc(N4CCCCC4)ccc3C2=NN1 (stereo not given)
Second: CC(C)(C)c1cc(C(=O)c2cccs2)cc(CN2CCCC2)c1O
The melting point of the first is higher: 252 to 254 °C for the first, 95 to 97 °C for the second.

Compared with `NCC(=O)Nc1c(Br)cc(Br)cc1Br`, `CC(C)(CO)Nc1nc(-c2ccc(Br)cc2)cs1` is lower in melting point: 185 to 186 °C for the first, 151 to 153 °C for the second.

Compared with `O=C(Nc1nc(-c2ccco2)c(C(=O)C2CCCC2)s1)c1ccncc1`, `COc1ccc(C(=O)Nc2cnccc2Cl)cc1OC1CCCC1` is lower in melting point: 168 to 181 °C for the first, 130 to 132 °C for the second.

First: N#Cc1n[nH]c(N)c1SC(F)(F)F
Second: O=C(Nc1cscn1)C(F)(F)F
The melting point of the first is higher: 187 °C for the first, 138 to 139 °C for the second.

First: COc1ccnc(CCc2nc3cc(-c4ccc(S(=O)(=O)N5CCNC(=O)CC5)cc4)cnc3[nH]2)c1
Second: COc1ccc2c3c(c(=O)oc2c1)CN(Cc1ccc([N+](=O)[O-])cc1)CC3
The melting point of the first is higher: 230 to 232 °C for the first, 176 to 178 °C for the second.

First: CC(Cc1c[nH]c2ccccc12)(NC(=O)OC1C2CC3CC(C2)CC1C3)C(=O)NCC(CCC(=O)O)c1ccccc1 (stereo not given)
Second: COC(=O)c1ccc2c(c1)-c1c(c(C(=O)C(C#N)C(=O)Nc3ccccc3)nn1-c1ccccc1)CS2 (stereo not given)
The melting point of the first is lower: 117 to 122 °C for the first, 228 to 230 °C for the second.

Compared with `CCOCOc1cc(C)ccc1-c1cc(-c2cccc([N+](=O)[O-])c2)c(C#N)c(NC(=O)c2cccs2)n1`, `Cc1cc(S(=O)(=O)N2c3ccccc3-c3ccc(F)cc3C2C)ccc1O` (stereo not given) is higher in melting point: 121 to 123 °C for the first, 196 °C for the second.

First: Cn1c(=O)c(-c2ccc(Cl)cc2Cl)cc2c3cc(-c4ccn[nH]4)ccc3[nH]c21
Second: Cn1cncc1C(O)c1ccc2c(c1)c(-c1cccc(Cl)c1)cc(=O)n2C (stereo not given)
The melting point of the first is higher: 246 to 250 °C for the first, 167 °C for the second.

Compared with `Cc1cc(-c2n[nH]c(=O)c(O)c2O)ccc1O`, `Oc1ccc(O)c(-c2nc3ccc(O)cc3o2)c1` is higher in melting point: 265 to 267 °C for the first, 278 to 280 °C for the second.

Compared with `COc1ccc(CCN(C)CCCOc2ccc(NC(=O)c3cccc4c(=O)c5ccccc5[nH]c34)cc2)cc1OC`, `Cc1ccc(NC(=O)c2ccc(C(=O)Nc3ccccc3N)nc2)cc1Nc1nccc(-c2cccnc2)n1` is higher in melting point: 140 °C for the first, 150 to 152 °C for the second.

Compared with `CCOC(=O)C1=C(COCCNS(=O)(=O)N2CCN(C)CC2)NC(C)=C(C(=O)OC)C1c1ccccc1Cl` (stereo not given), `CCCOc1ccc(S(=O)(=O)N2CCN(CCO)CC2)cc1-c1nc2c(CCC)nn(C)c2c(=O)[nH]1` is higher in melting point: 137 to 139 °C for the first, 158 to 159 °C for the second.

First: Cn1ncc(C2=CC(=O)CCC2)c1S(N)(=O)=O
Second: CCOC(=O)c1ncn2c1CNC(=O)c1sccc1-2
The melting point of the first is lower: 160 to 165 °C for the first, 263 to 264 °C for the second.

First: O=[N+]([O-])c1cnc2cc(Cl)ccc2c1Cl
Second: N#Cc1cnn2c(-c3cccc(Cl)c3)ccnc12
The melting point of the first is lower: 165 to 167 °C for the first, 238 to 240 °C for the second.

Compared with `CCC(CC)c1nn(-c2ncc(C(F)(F)F)cn2)cc1CCCOc1c(CC(=O)O)cccc1OC`, `CCOC(=O)c1c(C(F)(F)F)nc(C(F)F)c(C(=O)OC)c1OC(C)C` is lower in melting point: 163 to 164 °C for the first, 29 to 31 °C for the second.

First: C=CCn1cc(C(=O)OCC)c(=O)c2cc(F)c(Cl)cc21
Second: CS(=O)(=O)Nc1cc(F)c(Cl)cc1I
The melting point of the first is higher: 162 to 164 °C for the first, 123 to 124 °C for the second.

Compared with `CC1(C)Oc2ccc(Br)cc2C(n2ccccc2=O)=C1CN(O)C(N)=S`, `CN1c2ccc(F)cc2C(c2ccccc2)=NCC1CCl` (stereo not given) is lower in melting point: 219 °C for the first, 173 to 188 °C for the second.

First: COC(=O)c1cnc2c(C)cc(C)cc2c1-c1ccccc1Cl
Second: Cc1ccc(-c2cc(Br)c3[nH]c(=O)ccc3c2)c(C)n1
The melting point of the first is lower: 117 to 118 °C for the first, 212 to 215 °C for the second.

First: O=C(OCc1ccccc1)OCC1OC(n2cc(F)c(=O)[nH]c2=O)C(O)C1O (stereo not given)
Second: CC(NC(=O)OCc1ccccc1)C(=O)NC(C(=O)NC(CCCCNC(=O)OC(C)(C)C)C(N)=O)C(C)C (stereo not drawn) (Cbz-Ala-Val-Lys(Boc)-NH2; configuration not given here)
The melting point of the first is lower: 66 to 68 °C for the first, 214 to 217 °C for the second.

First: O=C1N[C@H](C(=O)NCCCCO)CS1
Second: COc1cc(N)c(Cl)cc1C(=O)N[C@H]1CCN(CCNC(=O)c2ccc(F)cc2)C[C@H]1OC (relative stereo)
The melting point of the first is lower: 81 to 83 °C for the first, 209 °C for the second.

First: CC(C)(C)OC(=O)N1CCC[C@H]1C(=O)N1CCN(C(=O)c2ccc(C#N)cc2)CC1
Second: CCOC(=O)c1ccc(NC(=O)c2ccc3c(c2)C(C)(C)CC(=O)N3C)cc1
The melting point of the first is lower: 50 °C for the first, 175 to 177 °C for the second.

First: Cn1c(=O)n(CC(=O)N(CCO)c2ccccc2)c2cnc(-c3ccccc3)nc21
Second: CCOC(=NS(=O)(=O)c1ccccc1)N1Cc2ccccc2-c2ccccc2C1
The melting point of the first is higher: 231 to 233 °C for the first, 146 to 150 °C for the second.

Compared with `Oc1ccc(C2COC(c3c(F)cccc3F)=N2)cc1` (stereo not given), `c1cc(Sc2cccc3cnccc23)c2ccncc2c1` is lower in melting point: 145 to 147 °C for the first, 138 to 140 °C for the second.

First: CN(C)CC1Cn2cc(C(=O)NCc3ccc(Cl)cc3)c(=O)c3cc(CN4CCOCC4)cc(c32)O1 (stereo not given)
Second: CC(=O)NC[C@H]1CN(c2cc(F)c(N3CCC(n4nnc(N5CCOCC5)n4)CC3)c(F)c2)C(=O)O1
The melting point of the first is lower: 168 to 170 °C for the first, 232 to 234 °C for the second.

Compared with `Oc1cc(-c2c3ccccc3c(Br)c3sc4ccccc4c23)cc(Br)c1O`, `COC(=O)c1coc(-c2ccc(NS(=O)(=O)c3sc4ccc(Cl)cc4c3C)c(S(C)(=O)=O)c2)n1` is higher in melting point: 212 to 213 °C for the first, 237 to 239 °C for the second.

First: COC(=O)c1c(S(C)(=O)=O)ccc(C(=O)O)c1C
Second: COCc1ccc(C(=O)OC)cn1
The melting point of the first is higher: 113 to 118 °C for the first, 33 °C for the second.

First: CCC1c2c(ncn2C)CCN1C(=O)NC(C)C (stereo not given)
Second: CC(C)Nc1nccc(C#Cc2ccc(F)cc2)n1
The melting point of the first is higher: 220 °C for the first, 128 to 129 °C for the second.

First: Cn1nnnc1NC(=O)c1cccc2cccnc12
Second: CC(=O)C(C#N)c1ccc2c(c1)Cc1cccnc1O2 (stereo not given)
The melting point of the first is lower: 224 to 225 °C for the first, 245 to 248 °C for the second.

First: COc1cc(OC(C)C)cc2oc(C)cc(=S)c12
Second: COc1ccc(OC)c(Cc2c(C)c3c(N)nc(N)nc3[nH]c2=O)c1
The melting point of the first is lower: 113 to 114 °C for the first, 325 to 326 °C for the second.

First: C=CC1CC2=CC(=O)CCC2(C)C2CCC3(C)C(CCC3(C)O)C12 (stereo not given)
Second: COc1ccc(N2CCN(c3c(C)c(C)c4c(c3C)C(N3CCc5ccccc5C3)C(C)(C)O4)CC2)cc1 (stereo not given)
The melting point of the first is lower: 116 to 117 °C for the first, 144 to 145 °C for the second.

First: Nc1ccc(CCN2CCC(Nc3nc4ccccc4n3Cc3ccc(F)cc3)CC2)cc1
Second: CC(C)(Cc1ccc(F)cc1)NC(=O)Nc1ccccc1CCc1cc(C(C)(C)C)c(O)c(C(C)(C)C)c1
The melting point of the first is higher: 195 °C for the first, 151 °C for the second.

Compared with `COc1ccc2c(c1)C(=O)N(c1cc3ccn(C)c3cn1)C2`, `CN1CC2CC1CN2C1=Nc2cc(Cl)ccc2Sc2ccccc21` (stereo not given) is lower in melting point: 205 to 210 °C for the first, 62 to 64 °C for the second.

First: C[C@@H](O)c1nccc(N2CCN(c3cnc4ccccc4n3)CC2)n1
Second: c1ccc(Oc2cnccc2N2CCNCC2)cc1
The melting point of the first is higher: 106 to 108 °C for the first, 74 to 77 °C for the second.

`COc1cc(/C=C/C(=O)CC(=O)/C=C/c2cccc(O)c2OC)ccc1O` and `CC(C)(COC(c1ccccc1)(c1ccccc1)c1ccccc1)C(=O)O` cannot be ordered by melting point: 152 to 155 °C for the first, 153 to 158 °C for the second.

First: CC(C)(C)c1cc(C=C(C#N)C#N)cc(Cl)c1O
Second: CCc1nc2c(C)cc(C)nc2n1Cc1ccc2c(c1)CCc1ccccc1N2Cc1nnn[nH]1
The melting point of the first is lower: 173 °C for the first, 177 to 179 °C for the second.

First: FC(F)C(F)(F)Oc1cccc(Nc2nccc(-c3ccncc3)n2)c1
Second: O=CNc1nc(CSc2ccncc2)cs1
The melting point of the first is higher: 191 to 192 °C for the first, 182 to 184 °C for the second.

From a melting point compilation (Tetko et al.; mined from patent text by program, amines drawn as free bases though some values may be those of a salt)
